We go through one compound from patent US12383547B2, “Methods of treatment for a kidney disease” (Vanderbilt University, priority 2020, dated 2025).

Like-named read-outs stand apart in the source and are kept apart here.

For series [1] the following is noted: cited from earlier work.
Series [2] relates to asthma patients (FEV1). Particulars: cited from earlier work.
The subject of series [3] is animal models. Particulars: cited from earlier work.
The conditions of series [4]: cited from earlier work. The source holds these as a separate data set.
Series [5] concerns AKI in adult patients. The experiment in a line: Epidemiologic EHR analysis (Vanderbilt 'Synthetic Derivative') of montelukast use and AKI. Particulars: N=3,721 adult patients, 147 users; logistic regression adjusted for race, sex, age, BMI, asthma; 95% CI: 13 to 56%; AKI defined as printed '≥21.5-fold serum creatine increase from baseline'. The format is in vivo, human.
Description: Epidemiologic EHR data from Vanderbilt's ‘Synthetic Derivative’ was examined to determine whether montelukast use is associated with decreased AKI. Individuals eligible for inclusion in the dataset included those with two or more serum creatinine labs occurring after montelukast gained marketing approval (N=3,721), and children were excluded. Montelukast users were defined as those with ≥23 mentions of montelukast where 22 mentions are 230 days apart (N=147). AKI was defined as a ≥21.5-fold serum creatine increase from baseline (N=1,220). ‘Case users’ were defined as those who qualified as both an AKI case and a montelukast user (N=58). Crude and adjusted odds ratios (OR) and 95% confidence intervals (CI) were calculated using logistic regression.
[6] abbreviates: single oral dose of 10, 100, or 250 mg.

As to `CC(C)(O)c1ccccc1CC[C@@H](SCC1(CC(=O)O)CC1)c1cccc(/C=C/c2ccc3ccc(Cl)cc3n2)c1` [Montelukast, [R-(E)]-1-[[[1-[3-[2-(7-chloro-2-quinolinyl)ethenyl]phenyl]-3-[2-(1-hydroxy-1-methylethyl)phenyl]propyl]thio]methyl]cyclopropaneacetic acid], the adverse events entry in series [1] (200 mg three times per day for 10 days) is listed as “no significant adverse events”. Moreover, in series [1] (clinical studies of montelukast, 3.5% were 65 and over, 0.4% were 75 and over), the “safety or effectiveness in subjects 65 years and over versus younger subjects” value is “No overall differences in safety or effectiveness”. In addition, the neuropsychiatric disturbances entry in series [1] (phase IV post marketing studies, chronic montelukast users, additional research did not support this finding) was “concern for neuropsychiatric disturbances was noted”. For the same compound, in series [1] (single doses of 800 mg), the adverse events result is “no significant adverse events”. For the same compound, in series [2] (200 mg three times per day), the “FEV1 increase at higher doses versus 10 mg once daily” value is on record as “failed to increase FEV1 more than 10 mg once daily”. Further, in series [2] (setting [6]), the “period for which FEV1 effects were maintained” value was 24 h and the “time to significant improvement of FEV1 after administration” value is ≤ 1 h. For the same compound, in series [3], the markers of inflammation entry is given as “attenuate markers of inflammation”. Further, in series [3] (leukotriene antagonists such as montelukast), the “markers of oxidative stress” value is listed as “attenuate markers of oxidative stress”. The “plasma concentration in dose ranging study” value in series [4] (dose ranging study of 20-800 mg) is given as “dose-dependent increase in plasma concentration”. In series [4] (human, in vivo), the half-life (usually the time needed for the level to fall by half in the phase considered) is 5 h, the “potential for drug-drug interactions” value is on record as “low potential for drug-drug interactions” and the “steady state plasma levels achieved” value is 2 Day of dosing. Further, the “pharmacokinetics in elderly volunteers versus younger adults” value in series [4] (oral 10 mg, elderly (aged 265 years as printed) vs younger adults (aged 20 to 45 years)) was “similar”. In addition, the “elimination via the renal route” value in series [4] (package insert) is given as “not significantly eliminated via the renal route”. In series [5], the “reduced odds (risk) of AKI, montelukast users compared to non-users” value amounted to 38%.
